LC retention time data for 80 molecules are collected here from the RepoRT retention time repository.

Counter-ions that a name gives are not always drawn.

The data set is described as follows: RP, Waters ACQUITY Premier BEH C18, 100 × 2.1 mm, 1.7 µm, 40 °C, 0.3 to 0.4 mL/min, estimated dead time 0.73 min; A: water + 0.1% formic acid; B: acetonitrile + 0.1% formic acid; gradient (min/%B) 0/0.5 0.1/0.5 10/80 10.1/99.5 12/0.5 12.1/0.5 14.5/0.5. As to conditions: stereoisomer not certain.
For `Nc1ncnc2c1ncn2C1OC(COP(=O)([O-])OP(=O)([O-])OCC2OC(O)C(O)C2O)C(O)C1O` (stereo not given) [ADENOSINE DIPHOSPHATE RIBOSE], the LC retention time is 0.954 min.

As to `CC(CC(=O)O)CC(=O)O` [METHYGLUTARATE], the LC retention time is 4.05 min.

`Nc1ncnc2c1ncn2C1OC(COP(=O)(O)OS(=O)(=O)O)C(O)C1O` (stereo not given) [ADENOSINE PHOSPHOSULFATE]: the LC retention time is 1.22 min.

For the molecule `O=c1ccc2ccc(O)cc2o1` [UMBELLIFERONE], the LC retention time was 4.61 min.

As to `COc1cc(CNC(=O)CCCCC=CC(C)C)ccc1O` [CAPSAICIN], the LC retention time is 7.3 min.

For the molecule `O=C(C=Cc1ccc(O)c(O)c1)OC1CC(O)(C(=O)O)CC(O)C1OC(=O)C=Cc1ccc(O)c(O)c1` (stereo not given) [4,5-DI-O-CAFFEOYLQUINIC ACID], the LC retention time is 4.78 min.

Consider `O=C(O)c1ccc[nH]1` [PYRROLE-2-CARBOXYLATE], for which the LC retention time is 4.38 min.

As for `CC1OC(OCC2OC(Oc3cc(O)c4c(c3)OC(c3ccc(O)cc3)CC4=O)C(O)C(O)C2O)C(O)C(O)C1O` (stereo not given) [NARIRUTIN], the LC retention time is 4.59 min.

As to `Cc1c(O)cc2c(c1C)OC(C)(CCC(=O)O)CC2` (stereo not given) [GAMMA-CEHC], the LC retention time was 6.69 min.

In the case of `COC(=O)CCC(=O)OC` [DIMETHYL SUCCINATE], the LC retention time was 3.97 min.

On to `NCCc1c[nH]c2ccc(O)cc12` [SEROTONIN], for which the LC retention time is 3.44 min.

Consider `CCCCC(N)C(=O)O` (stereo not given) [NORLEUCINE], for which the LC retention time was 2.79 min.

For the molecule `CS(=O)CCCN=C=S` (stereo not given) [3-METHYLSULFINYLPROPYL ISOTHIOCYANATE], the LC retention time is 4.1 min.

For the molecule `OCC1OC(Oc2c[nH]c3ccccc23)C(O)C(O)C1O` (stereo not given), the LC retention time was 4.43 min.

Take `O=C(O)c1ccc2ccccc2n1` [2-QUINOLINECARBOXYLATE]: the LC retention time is 4.24 min.

Turning to `CC(=O)Nc1ccc(OC2OC(C(=O)O)C(O)C(O)C2O)cc1` (stereo not given) [4-ACETAMIDOPHENYLGLUCURONIDE], the LC retention time is 1.32 min.

As for `NC(N)=NCCCC(=O)O` [4-GUANIDINOBUTANOATE], the LC retention time was 1.35 min.

Turning to `CCCCCCC(N)C(=O)O` (racemic) [DL-2-AMINOOCTANOIC ACID], the LC retention time was 4.04 min.

As for `Nc1ncnc2c1ncn2C1OC(CO)C(O)C1O` (stereo not given) [ADENOSINE], the LC retention time is 3.28 min.

Regarding `CC(=O)OCC(=O)C1(O)CCC2C3CCC4=CC(=O)CCC4(C)C3C(O)CC21C` (stereo not given) [CORTISOL 21-ACETATE], the LC retention time is 6.92 min.

`Nc1ncnc2c1ncn2C1OC(COP(=O)(O)O)C(O)C1O` (stereo not given) [ADENOSINE-MONOPHOSPHATE]: the LC retention time was 1.35 min.

For the molecule `COc1c(O)cc2oc3cc(O)c(CC=C(C)C)c(O)c3c(=O)c2c1CC=C(C)C` [ALPHA-MANGOSTIN], the LC retention time was 8.32 min.

Turning to `COc1c2ccoc2cc2oc(=O)ccc12` [BERGAPTEN], the LC retention time was 6.74 min.

For the molecule `O=C(O)c1ccc(O)cc1` [4-HYDROXYBENZOATE], the LC retention time is 4.37 min.

On to `NC(CCOC(=O)CCC(=O)O)C(=O)O` (stereo not given) [O-SUCCINYL-HOMOSERINE], for which the LC retention time was 1.68 min.

As for `Nc1nc2c(ncn2C2OC(COP(=O)(O)O)C(O)C2O)c(=O)[nH]1` (stereo not given) [GUANOSINE MONOPHOSPHATE], the LC retention time is 1.57 min.

For the molecule `CC(C)=CCCC(C)=CCC1=C(C)C(=O)c2ccccc2C1=O` [MENAQUINONE], the LC retention time is 10.8 min.

Regarding `O=C(O)CC1C(=O)Nc2ccccc21` (stereo not given) [3-OXINDOLE-3-ACETATE], the LC retention time is 4.29 min.

As for `OCC1OC(OCC2OC(OC3(CO)OC(CO)C(O)C3O)C(O)C(O)C2O)C(O)C(O)C1O` (stereo not given) [RAFFINOSE], the LC retention time is 0.962 min.

As for `CC(C=CC1=C(C)CCCC1(C)C)=CC=CC(C)=CC(=O)O` [RETINOATE], the LC retention time was 9.05 min.

Turning to `O=C(O)C(=O)c1ccccc1` [PHENYLGLYOXYLIC ACID], the LC retention time is 5.53 min.

For the molecule `CCCC(=O)OC(CC(=O)[O-])C[N+](C)(C)C` (stereo not given) [BUTYRYLCARNITINE], the LC retention time was 3.89 min.

As for `COc1cc(C2Oc3cc(C4Oc5cc(O)cc(O)c5C(=O)C4O)ccc3OC2CO)ccc1O` (stereo not given) [SILIBININ], the LC retention time is 5.88 min.

Take `CC1OC(Oc2c(-c3cc(O)c(O)c(O)c3)oc3cc(O)cc(O)c3c2=O)C(O)C(O)C1O` (stereo not given) [MYRICITRIN]: the LC retention time is 4.4 min.

As to `O=C(O)CNC(=O)c1ccccc1` [HIPPURATE], the LC retention time is 4.57 min.

As for `O=c1c(OC2OC(CO)C(O)C(O)C2O)c(-c2ccc(O)c(O)c2)oc2cc(O)cc(O)c12` (stereo not given) [QUERCETIN 3-GALACTOSIDE], the LC retention time is 4.41 min.

For the molecule `NC(=O)c1ccccc1O` [SALICYLAMIDE], the LC retention time was 5.04 min.

For `COc1cc(CCN)ccc1O` [3-METHOXYTYRAMINE], the LC retention time was 3.47 min.

Consider `O=C(O)Cc1c[nH]c2ccccc12` [INDOLEACETIC ACID], for which the LC retention time was 5.72 min.

As to `CC(=O)NC(Cc1ccccc1)C(=O)O` (stereo not given) [N-ACETYLPHENYLALANINE], the LC retention time is 5.18 min.

Turning to `CCCCCC1CCCC(=O)O1` (stereo not given) [DELTA-DECALACTONE], the LC retention time was 7.1 min.

On to `COc1cc2c(cc1O)CCC1C2CCC2(C)C(=O)CCC12` (stereo not given) [2-METHOXYESTRONE], for which the LC retention time was 7.38 min.

Turning to `O=c1ccc2cc(OC3OC(CO)C(O)C(O)C3O)c(O)cc2o1` (stereo not given) [AESCULIN], the LC retention time is 3.14 min.

As to `C[N+](C)(C)C(Cc1c[nH]c2ccccc12)C(=O)[O-]` (stereo not given) [LENTICIN], the LC retention time is 3.64 min.

For the molecule `O=C(CCc1ccc(O)cc1)c1c(O)cc(O)cc1OC1OC(CO)C(O)C(O)C1O` (stereo not given) [PHLORIDZIN], the LC retention time was 5.01 min.

In the case of `COc1ccccc1C=CC=O` [CASSIASTEAROPTENE], the LC retention time is 7.94 min.

On to `Cc1cc2c(C(C)C)c(O)c(O)c(C=O)c2c(O)c1-c1c(C)cc2c(C(C)C)c(O)c(O)c(C=O)c2c1O` [(-)-GOSSYPOL], for which the LC retention time is 8.49 min.

In the case of `C=C1CC23CC1(O)CCC2C12C=CC(O)C(C)(C(=O)O1)C2C3C(=O)O` (stereo not given) [GIBBERELLIN A3], the LC retention time was 5.05 min.

On to `O=c1c(-c2ccc(O)cc2)coc2c(C3OC(CO)C(O)C(O)C3O)c(O)ccc12` (stereo not given) [PUERARIN], for which the LC retention time is 3.76 min.

Take `COc1cc2ccc(=O)oc2cc1O` [SCOPOLETIN]: the LC retention time was 4.62 min.

Turning to `OCC(O)c1ccc(O)c(O)c1` (stereo not given) [3,4-DIHYDROXYPHENYLGLYCOL], the LC retention time is 1.86 min.

In the case of `OCC1OC(OCC2OC(OCC3OC(OC4(CO)OC(CO)C(O)C4O)C(O)C(O)C3O)C(O)C(O)C2O)C(O)C(O)C1O` (stereo not given) [STACHYOSE], the LC retention time was 0.921 min.

With `OCc1ccccc1OC1OC(CO)C(O)C(O)C1O` (stereo not given) [SALICIN], the LC retention time is 2.95 min.

As to `O=C(O)c1ccccc1` [BENZOATE], the LC retention time is 4.51 min.

For `CC(CCC(=O)O)C1CCC2C3C(=O)CC4CC(O)CCC4(C)C3CCC12C` (stereo not given) [NUTRIACHOLIC ACID], the LC retention time is 7.25 min.

As to `CC(=O)NC(Cc1c[nH]c2ccccc12)C(=O)O` (stereo not given) [N-ACETYLTRYPTOPHAN], the LC retention time was 5.31 min.

Regarding `O=C(O)c1cccnc1` [NICOTINATE], the LC retention time is 1.42 min.

With `O=C(O)C1CCCCN1` (stereo not given) [PIPECOLATE], the LC retention time was 1.33 min.

In the case of `COc1cc2ccc(=O)oc2cc1OC` [SCOPARONE], the LC retention time was 5.34 min.

In the case of `Cc1ncc(CO)c(C=O)c1O` [PYRIDOXAL], the LC retention time is 0.923 min.

Turning to `C[N+](C)(C)CCCC(=O)[O-]` [DEOXYCARNITINE], the LC retention time is 0.901 min.

Regarding `NCCc1cc(O)c(O)cc1O` [6-HYDROXYDOPAMINE], the LC retention time was 1.31 min.

On to `Oc1ccc(C2COc3cc(O)ccc3C2)cc1` (stereo not given) [EQUOL], for which the LC retention time is 6.57 min.

As for `O=C1CCCCO1` [5-VALEROLACTONE], the LC retention time was 4.9 min.

Consider `Cc1ccc(OS(=O)(=O)O)cc1` [P-CRESOL SULFATE], for which the LC retention time was 4.57 min.

For `O=c1cc(-c2ccc(O)cc2)oc2cc(OC3OC(CO)C(O)C(O)C3O)cc(O)c12` (stereo not given) [COSMOSIIN], the LC retention time was 4.75 min.

In the case of `CC(=O)OC(CC(=O)O)C[N+](C)(C)C` (stereo not given) [O-ACETYLCARNITINE], the LC retention time is 1.48 min.

`Cc1cn(C2CC(O)C(COP(=O)(O)O)O2)c(=O)[nH]c1=O` (stereo not given) [THYMIDINE-MONOPHOSPHATE]: the LC retention time is 2.73 min.

With `O=c1[nH]cnc2c1ncn2C1OC(CO)C(O)C1O` (stereo not given) [INOSINE], the LC retention time was 3.37 min.

`CC12CCC(=O)C=C1CCC1C2C(O)CC2(C)C1CCC2(O)C(=O)CO` (stereo not given) [CORTISOL]: the LC retention time is 6.06 min.

As for `O=c1ccn(C2CC(O)C(CO)O2)c(=O)[nH]1` (stereo not given) [DEOXYURIDINE], the LC retention time was 3.27 min.

Regarding `O=c1[nH]c(=O)c2ncn(C3OC(CO)C(O)C3O)c2[nH]1` (stereo not given) [XANTHOSINE], the LC retention time was 3.45 min.

`CN(CC(=O)O)C(=N)N` [CREATINE]: the LC retention time is 0.905 min.

On to `Nc1ccccc1S(=O)(=O)O` [ANILINE-2-SULFONATE], for which the LC retention time is 2.54 min.

On to `OCC(Cc1cccc(O)c1)C(CO)Cc1cccc(O)c1` (stereo not given) [ENTERODIOL], for which the LC retention time is 5.95 min.

Regarding `CCCCCC(N)C(=O)O` (stereo not given) [2-AMINOHEPTANOATE], the LC retention time was 2.81 min.

Regarding `NCCc1ccc(O)cc1` [TYRAMINE], the LC retention time was 2.81 min.

Turning to `O=c1cc(-c2ccc(O)c(O)c2)oc2c(C3OC(CO)C(O)C(O)C3O)c(O)cc(O)c12` (stereo not given) [ORIENTIN], the LC retention time is 5.18 min.

As to `O=C1Cc2ccccc2N1` [1,3-DIHYDRO-(2H)-INDOL-2-ONE], the LC retention time is 5.06 min.

On to `CC12CCC(=O)C=C1CCC1C2CCC2(C)C1CCC2(O)C(=O)CO` (stereo not given) [CORTEXOLONE], for which the LC retention time is 6.74 min.
